How the values were obtained:
Format in all cases: biochemical
CDK4/Cyclin D1 = CDK4/Cyclin D1 (Homo sapiens (Human), UniProt P11802); test: CDK4/CyclinD1 kinase inhibitory activity (Caliper mobility shift)
CDK7/CyclinH/MAT1 = CDK7/CyclinH/MAT1 (Homo sapiens (Human), UniProt P50613); test: CDK7/CyclinH/MAT1 kinase inhibitory activity (Caliper mobility shift)
CDK9/CyclinT1 = CDK9/CyclinT1 (Homo sapiens (Human), UniProt P50750); test: CDK9/CyclinT1 kinase inhibitory activity (Caliper mobility shift); conditions: read-out: CDK9/Cyclin T1 IC50
CDK6/CyclinD1 = CDK6/CyclinD1 (Homo sapiens (Human), UniProt Q00534); test: CDK6/CyclinD1 kinase inhibitory activity (Caliper mobility shift); conditions: read-out: CDK6/Cyclin D1 IC50
CDK1/CyclinB = CDK1/CyclinB (Homo sapiens (Human), UniProt P06493); test: CDK1/CyclinB kinase inhibitory activity (Caliper mobility shift); conditions: read-out: CDK1/Cyclin B1 IC50
CDK2/CyclinE1 = CDK2/CyclinE1 (Homo sapiens (Human), UniProt P24941); test: CDK2/CyclinE1 kinase inhibitory activity (Caliper mobility shift); conditions: read-out: CDK2/Cyclin El IC50

Chain of CDK6/CyclinD1 (Q00534 whole entry): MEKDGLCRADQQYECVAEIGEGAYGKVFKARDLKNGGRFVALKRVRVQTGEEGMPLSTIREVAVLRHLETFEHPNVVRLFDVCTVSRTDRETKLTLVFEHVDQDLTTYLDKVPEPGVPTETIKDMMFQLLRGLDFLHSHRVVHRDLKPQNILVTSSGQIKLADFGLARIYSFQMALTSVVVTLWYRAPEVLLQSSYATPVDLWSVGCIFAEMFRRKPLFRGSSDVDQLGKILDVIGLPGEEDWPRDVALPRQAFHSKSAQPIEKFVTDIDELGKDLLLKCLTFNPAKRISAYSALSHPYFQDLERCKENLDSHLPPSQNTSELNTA
Chain of CDK6/CyclinD1 (P24385 whole entry partner): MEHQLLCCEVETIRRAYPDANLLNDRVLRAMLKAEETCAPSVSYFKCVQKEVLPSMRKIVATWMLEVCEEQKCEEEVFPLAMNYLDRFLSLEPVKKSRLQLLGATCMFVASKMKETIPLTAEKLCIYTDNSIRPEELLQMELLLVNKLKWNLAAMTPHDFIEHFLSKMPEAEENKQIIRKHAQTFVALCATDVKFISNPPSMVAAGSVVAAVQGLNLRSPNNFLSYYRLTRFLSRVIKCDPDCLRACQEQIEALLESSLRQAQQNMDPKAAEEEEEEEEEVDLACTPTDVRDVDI
Chain of CDK1/CyclinB (P06493 whole entry): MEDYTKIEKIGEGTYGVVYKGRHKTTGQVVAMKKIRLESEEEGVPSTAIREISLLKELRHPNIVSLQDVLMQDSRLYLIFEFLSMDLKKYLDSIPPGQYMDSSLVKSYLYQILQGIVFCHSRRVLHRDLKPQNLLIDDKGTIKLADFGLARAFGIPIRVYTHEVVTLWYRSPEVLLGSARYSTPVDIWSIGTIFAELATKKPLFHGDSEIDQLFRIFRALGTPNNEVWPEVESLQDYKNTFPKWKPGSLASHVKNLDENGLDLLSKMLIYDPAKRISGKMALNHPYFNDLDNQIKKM
Chain of CDK1/CyclinB (P14635 whole entry partner): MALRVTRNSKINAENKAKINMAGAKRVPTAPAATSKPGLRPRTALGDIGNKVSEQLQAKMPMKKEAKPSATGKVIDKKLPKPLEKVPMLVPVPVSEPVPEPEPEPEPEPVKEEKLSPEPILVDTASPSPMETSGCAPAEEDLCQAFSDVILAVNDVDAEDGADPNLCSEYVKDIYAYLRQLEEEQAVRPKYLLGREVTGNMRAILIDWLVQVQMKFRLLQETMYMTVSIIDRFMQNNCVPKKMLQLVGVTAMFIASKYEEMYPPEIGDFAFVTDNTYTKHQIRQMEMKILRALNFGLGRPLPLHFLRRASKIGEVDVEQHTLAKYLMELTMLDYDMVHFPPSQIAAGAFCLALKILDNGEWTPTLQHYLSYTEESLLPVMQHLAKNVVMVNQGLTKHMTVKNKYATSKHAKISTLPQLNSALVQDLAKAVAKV
Chain of CDK7/CyclinH/MAT1 (P50613 whole entry): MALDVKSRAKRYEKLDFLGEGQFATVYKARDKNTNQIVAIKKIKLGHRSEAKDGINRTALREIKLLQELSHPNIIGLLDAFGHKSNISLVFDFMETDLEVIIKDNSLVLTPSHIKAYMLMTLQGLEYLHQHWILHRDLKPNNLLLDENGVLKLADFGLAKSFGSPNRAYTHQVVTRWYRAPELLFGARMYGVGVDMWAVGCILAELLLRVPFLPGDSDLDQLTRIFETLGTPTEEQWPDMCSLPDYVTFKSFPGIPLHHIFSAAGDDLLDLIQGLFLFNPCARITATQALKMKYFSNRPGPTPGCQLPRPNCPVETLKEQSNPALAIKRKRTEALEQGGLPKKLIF
Chain of CDK7/CyclinH/MAT1 (P51946 whole entry partner): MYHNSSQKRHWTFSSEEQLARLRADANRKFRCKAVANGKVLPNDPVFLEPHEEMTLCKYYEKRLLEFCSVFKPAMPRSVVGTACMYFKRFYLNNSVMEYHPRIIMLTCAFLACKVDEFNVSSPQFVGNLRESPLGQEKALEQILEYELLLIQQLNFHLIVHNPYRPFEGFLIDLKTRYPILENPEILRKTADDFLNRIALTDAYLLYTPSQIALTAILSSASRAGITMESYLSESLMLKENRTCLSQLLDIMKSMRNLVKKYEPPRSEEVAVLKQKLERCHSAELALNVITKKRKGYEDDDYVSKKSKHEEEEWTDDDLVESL
Chain of CDK7/CyclinH/MAT1 (P51948 whole entry partner): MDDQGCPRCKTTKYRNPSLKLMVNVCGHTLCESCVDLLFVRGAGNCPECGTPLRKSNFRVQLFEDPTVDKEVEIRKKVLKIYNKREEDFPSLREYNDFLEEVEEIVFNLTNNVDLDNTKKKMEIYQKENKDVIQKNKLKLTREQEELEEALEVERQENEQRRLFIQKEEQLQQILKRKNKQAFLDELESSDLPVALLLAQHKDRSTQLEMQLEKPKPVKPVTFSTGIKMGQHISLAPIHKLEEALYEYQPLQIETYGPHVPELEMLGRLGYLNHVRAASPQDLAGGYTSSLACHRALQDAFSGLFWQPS
Chain of CDK9/CyclinT1 (P50750 whole entry): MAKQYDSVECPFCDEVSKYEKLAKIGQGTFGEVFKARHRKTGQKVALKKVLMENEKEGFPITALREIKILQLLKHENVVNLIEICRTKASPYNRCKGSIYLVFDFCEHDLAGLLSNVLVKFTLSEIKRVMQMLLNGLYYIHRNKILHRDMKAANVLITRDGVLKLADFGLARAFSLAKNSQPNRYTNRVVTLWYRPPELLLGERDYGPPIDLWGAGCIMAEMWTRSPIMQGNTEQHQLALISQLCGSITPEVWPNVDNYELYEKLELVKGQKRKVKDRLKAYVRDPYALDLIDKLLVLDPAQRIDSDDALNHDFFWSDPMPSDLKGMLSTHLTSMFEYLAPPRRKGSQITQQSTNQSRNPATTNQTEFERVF
Chain of CDK9/CyclinT1 (O60563 whole entry partner): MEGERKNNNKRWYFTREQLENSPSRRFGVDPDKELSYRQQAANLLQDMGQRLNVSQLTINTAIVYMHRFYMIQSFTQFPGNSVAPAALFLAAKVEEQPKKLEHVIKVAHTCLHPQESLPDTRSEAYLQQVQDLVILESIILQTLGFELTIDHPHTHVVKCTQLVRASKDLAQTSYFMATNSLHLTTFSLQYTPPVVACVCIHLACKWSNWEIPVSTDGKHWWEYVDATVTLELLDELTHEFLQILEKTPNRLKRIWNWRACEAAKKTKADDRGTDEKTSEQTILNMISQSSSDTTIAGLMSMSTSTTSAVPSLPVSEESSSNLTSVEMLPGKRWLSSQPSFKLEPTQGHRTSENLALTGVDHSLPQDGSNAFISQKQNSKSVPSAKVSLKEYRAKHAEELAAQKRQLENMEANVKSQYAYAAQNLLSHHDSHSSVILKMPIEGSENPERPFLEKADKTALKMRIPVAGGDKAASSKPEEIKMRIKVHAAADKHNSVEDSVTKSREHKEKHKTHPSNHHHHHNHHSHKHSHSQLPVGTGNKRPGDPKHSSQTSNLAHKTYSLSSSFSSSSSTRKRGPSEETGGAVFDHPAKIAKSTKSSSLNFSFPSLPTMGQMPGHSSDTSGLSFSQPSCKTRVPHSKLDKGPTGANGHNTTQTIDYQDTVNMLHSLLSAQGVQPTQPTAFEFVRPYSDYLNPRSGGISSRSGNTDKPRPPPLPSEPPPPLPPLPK
Chain of CDK4/Cyclin D1 (P11802 whole entry): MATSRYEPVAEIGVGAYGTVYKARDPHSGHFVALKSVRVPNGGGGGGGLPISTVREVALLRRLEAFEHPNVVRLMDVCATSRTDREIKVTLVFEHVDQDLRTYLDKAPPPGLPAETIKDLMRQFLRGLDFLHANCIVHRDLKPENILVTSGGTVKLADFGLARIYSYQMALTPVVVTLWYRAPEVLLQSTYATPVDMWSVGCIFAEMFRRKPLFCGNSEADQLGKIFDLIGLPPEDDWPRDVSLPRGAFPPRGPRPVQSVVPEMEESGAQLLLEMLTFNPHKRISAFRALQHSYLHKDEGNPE
Chain of CDK4/Cyclin D1 (P24385 whole entry partner): as the sequence (P24385 whole entry partner) above

Row | Compound | IC50 (CDK4/Cyclin D1) | IC50 (CDK7/CyclinH/MAT1) | IC50 (CDK9/CyclinT1) | IC50 (CDK6/CyclinD1) | IC50 (CDK1/CyclinB) | IC50 (CDK2/CyclinE1)
1 | [2H]C([2H])([2H])NS(=O)(=O)c1ccc(Nc2ncc(C(F)(F)F)c(O[C@H]3CCOC[C@H]3O)n2)cc1 (single isomer, unassigned) [Example 100a, cis-4-((4-((3-hydroxytetrahydro-2H-pyran-4-yl)oxy)-5-(trifluoromethyl)pyrimidin-2-yl)amino)-N-(methyl-d3)benzenesulfonamide] | 100 to 1000 nM | 100 to 1000 nM | 100 to 1000 nM | 100 to 1000 nM | 10 to 100 nM | < 10 nM
2 | C[C@]1(O)COC[C@H]1Oc1nc(NC2CCN(S(C)(=O)=O)CC2)ncc1C(F)(F)F (relative stereo) [Example 104a, cis-3-methyl-4-((2-((1-(methylsulfonyl)piperidin-4-yl)amino)-5-(trifluoromethyl)pyrimidin-4-yl)oxy)tetrahydrofuran-3-ol] | 10 to 100 nM | 10 to 100 nM | 100 to 1000 nM | 10 to 100 nM | 10 to 100 nM | < 10 nM
3 | CC1(O)CC(F)(F)CCC1Oc1nc(NC2CCN(S(C)(=O)=O)CC2)ncc1C#N (single isomer, unassigned) [Example 47b] | 100 to 1000 nM | ≥ 1000 nM | ≥ 1000 nM | 100 to 1000 nM | ≥ 1000 nM | 100 to 1000 nM
4 | CNS(=O)(=O)c1ccc(Nc2ncc(C(F)(F)F)c(OC3CCCC3O)n2)cc1 (single isomer, unassigned) [Example 105a] | 100 to 1000 nM | 100 to 1000 nM | 100 to 1000 nM | 100 to 1000 nM | 10 to 100 nM | < 10 nM
5 | Cc1cnc(Nc2ccc(S(=O)(=O)NC3CC3)cc2)nc1OC1CCCC1O (single isomer, unassigned) [Example 146a] | ≥ 1000 nM | ≥ 1000 nM | 100 to 1000 nM | 100 to 1000 nM | 100 to 1000 nM | < 10 nM
6 | [2H]C([2H])([2H])NS(=O)(=O)c1ccc(Nc2ncc(C)c(OC3CCCC3O)n2)cc1 (single isomer, unassigned) [Example 148a] | ≥ 1000 nM | ≥ 1000 nM | 100 to 1000 nM | 100 to 1000 nM | 100 to 1000 nM | < 10 nM
7 | O=S(=O)(NC1CC1)c1ccc(Nc2ncc(C(F)(F)F)c(OC3CCCC3O)n2)cc1 (single isomer, unassigned) [Example 107a] | 100 to 1000 nM | 100 to 1000 nM | 100 to 1000 nM | 100 to 1000 nM | 10 to 100 nM | < 10 nM
8 | [2H]C1([2H])CC(O)C(Oc2nc(Nc3ccc(S(=O)(=O)NC([2H])([2H])[2H])cc3)ncc2C(F)(F)F)C1 (single isomer, unassigned) [Example 110a] | 100 to 1000 nM | 100 to 1000 nM | 100 to 1000 nM | 10 to 100 nM | 10 to 100 nM | < 10 nM
9 | CC1(NS(=O)(=O)c2ccc(Nc3ncc(Br)c(O[C@@H]4CCC[C@@H]4O)n3)cc2)COC1 (single isomer, unassigned) [Example 131a, cis-4-((5-bromo-4-((2-hydroxycyclopentyl)oxy)pyrimidin-2-yl)amino)-N-(3-methyloxetan-3-yl)benzenesulfonamide] | 100 to 1000 nM | 100 to 1000 nM | 100 to 1000 nM | 100 to 1000 nM | 10 to 100 nM | < 10 nM
10 | N#Cc1cnc(Nc2ccc(S(N)(=O)=O)cc2)nc1N1CCC(O)CC1 [Example 82] | 100 to 1000 nM | ≥ 1000 nM | 100 to 1000 nM | 100 to 1000 nM | 100 to 1000 nM | 10 to 100 nM
11 | Cn1cc(S(=O)(=O)N2CCC(Nc3ncc(Br)c(OC4CCCCC4O)n3)CC2)cn1 (single isomer, unassigned) [Example 144b] | 10 to 100 nM | 100 to 1000 nM | 100 to 1000 nM | 10 to 100 nM | 10 to 100 nM | < 10 nM
12 | CNS(=O)(=O)c1ccc(Nc2ncc(C#N)c(N3CCCCC3)n2)cc1 [Example 91] | 10 to 100 nM | ≥ 1000 nM | 100 to 1000 nM | 100 to 1000 nM | 10 to 100 nM | < 10 nM
13 | [2H]C([2H])([2H])NS(=O)(=O)c1ccc(Nc2ncc(C(=C)F)c(O[C@@H]3CCC[C@@H]3O)n2)cc1 (single isomer, unassigned) [Example 135a, cis-4-((5-(1-fluorovinyl)-4-((2-hydroxycyclopentyl)oxy)pyrimidin-2-yl)amino)-N-(methyl-d3)benzenesulfonamide] | 100 to 1000 nM | 100 to 1000 nM | 100 to 1000 nM | 100 to 1000 nM | 10 to 100 nM | < 10 nM
14 | [2H]C([2H])([2H])NS(=O)(=O)c1ccc(Nc2ncc(C(F)(F)F)c(OC3COCCC3O)n2)cc1 (single isomer, unassigned) [Example 117a] | 100 to 1000 nM | 100 to 1000 nM | 100 to 1000 nM | 100 to 1000 nM | 10 to 100 nM | < 10 nM

The next lines start with the values.

Row | IC50 (CDK4/Cyclin D1) | IC50 (CDK7/CyclinH/MAT1) | IC50 (CDK9/CyclinT1) | IC50 (CDK6/CyclinD1) | IC50 (CDK1/CyclinB) | IC50 (CDK2/CyclinE1) | Compound
15 | 10 to 100 nM | ≥ 1000 nM | 100 to 1000 nM | 100 to 1000 nM | 10 to 100 nM | < 10 nM | N#Cc1cnc(Nc2ccc(S(=O)(=O)NC3CC(F)C3)cc2)nc1OC1CCCCC1O (single isomer, unassigned) [Example 31a]
16 | < 10 nM | 10 to 100 nM | 100 to 1000 nM | < 10 nM | 10 to 100 nM | < 10 nM | C[C@]1(O)CCC[C@H]1Oc1nc(NC2CCN(S(C)(=O)=O)CC2)ncc1C#N (relative stereo) [Example 3b, cis-4-((2-hydroxy-2-methylcyclopentyl)oxy)-2-((1-(methylsulfonyl)piperidin-4-yl)amino)pyrimidine-5-carbonitrile]
17 | < 10 nM | < 10 nM | 10 to 100 nM | < 10 nM | < 10 nM | < 10 nM | Cn1cc(S(=O)(=O)N2CCC(Nc3ncc(C(F)(F)F)c(OC4CCOCC4(C)O)n3)CC2)cn1 (single isomer, unassigned) [Example 125a]
18 | 10 to 100 nM | ≥ 1000 nM | 100 to 1000 nM | 100 to 1000 nM | 10 to 100 nM | < 10 nM | [2H]C([2H])([2H])NS(=O)(=O)c1ccc(Nc2ncc(C#N)c(OC3CCCOCC3)n2)cc1 (single isomer, unassigned) [Example 33a]
19 | 10 to 100 nM | 100 to 1000 nM | 100 to 1000 nM | 10 to 100 nM | 10 to 100 nM | < 10 nM | CNS(=O)(=O)N1CCC(Nc2ncc(C(F)(F)F)c(OC3CCCCCC3O)n2)CC1 (single isomer, unassigned) [Example 123b]
20 | < 10 nM | < 10 nM | 10 to 100 nM | < 10 nM | < 10 nM | < 10 nM | CC1(O)CCC(F)(F)CC1Oc1nc(NC2CCN(S(C)(=O)=O)CC2)ncc1C#N (single isomer, unassigned) [Example 46b]
21 | < 10 nM | 100 to 1000 nM | 100 to 1000 nM | 10 to 100 nM | 10 to 100 nM | < 10 nM | COCCS(=O)(=O)N1CCC(Nc2ncc(C#N)c(OCC3(C)CCCC3)n2)CC1 [Example 58]
22 | 10 to 100 nM | 10 to 100 nM | 100 to 1000 nM | < 10 nM | 10 to 100 nM | < 10 nM | C[C@]1(O)CC(F)(F)C[C@H]1Oc1nc(NC2CCN(S(C)(=O)=O)CC2)ncc1C#N (relative stereo) [Example 4a, cis-4-((4,4-difluoro-2-hydroxy-2-methylcyclopentyl)oxy)-2-((1-(methylsulfonyl)piperidin-4-yl)amino)pyrimidine-5-carbonitrile]
23 | 10 to 100 nM | 10 to 100 nM | 100 to 1000 nM | 10 to 100 nM | 10 to 100 nM | < 10 nM | CS(=O)(=O)N1CCC(Nc2ncc(C(F)(F)F)c(OC3CCCCC3O)n2)CC1 (single isomer, unassigned) [Example 120a]
24 | < 10 nM | 100 to 1000 nM | 100 to 1000 nM | < 10 nM | 10 to 100 nM | < 10 nM | CC1(COc2nc(NC3CCN(S(C)(=O)=O)CC3)ncc2C#N)CCCC1 [Example 54]
25 | 10 to 100 nM | 100 to 1000 nM | 10 to 100 nM | 10 to 100 nM | 10 to 100 nM | < 10 nM | NS(=O)(=O)c1ccc(Nc2ncc(Br)c(OC3CCCC3O)n2)cc1 (single isomer, unassigned) [Example 141a]
26 | 10 to 100 nM | 100 to 1000 nM | 100 to 1000 nM | 10 to 100 nM | 10 to 100 nM | < 10 nM | CS(=O)(=O)N1CCC(Nc2ncc(C(F)(F)F)c(OC3CCC3)n2)CC1 [Example 126]
27 | 10 to 100 nM | < 10 nM | 10 to 100 nM | 10 to 100 nM | 10 to 100 nM | < 10 nM | CC1(O)COCCC1Oc1nc(NC2CCN(S(C)(=O)=O)CC2)ncc1C(F)(F)F (single isomer, unassigned) [Example 124a]
28 | < 10 nM | ≥ 1000 nM | 10 to 100 nM | 100 to 1000 nM | 10 to 100 nM | < 10 nM | CC1(COc2nc(Nc3ccc(S(N)(=O)=O)cc3)ncc2C#N)CCCC1 [Example 12]
29 | < 10 nM | < 10 nM | < 10 nM | < 10 nM | < 10 nM | < 10 nM | CC1(O)CCCCC1Oc1nc(Nc2ccc(S(N)(=O)=O)cc2)ncc1C#N (single isomer, unassigned) [Example 24a]
30 | < 10 nM | 100 to 1000 nM | 100 to 1000 nM | 10 to 100 nM | < 10 nM | < 10 nM | Cn1cc(S(=O)(=O)N2CCC(Nc3ncc(C#N)c(OCC4(C)CCC4)n3)CC2)cn1 [Example 60]

— US20240166635A1, “AMINOHETEROARYL KINASE INHIBITORS” (Anrui Biomedical Technology (Guangzhou) Co.,Ltd., priority 2020, published 2024)
